Results: ChEMBL document CHEMBL4888484, “Replenishing the malaria drug discovery pipeline: Screening and hit evaluation of the MMV Hit Generation Library 1 (HGL1) against asexual blood stage Plasmodium falciparum ,using a nano luciferase reporter read-out” (2022)
pIC50: −log10 of the molar value.

What was measured:
[1] = system: Plasmodium falciparum; assay: Hit confirmation in dose-response curve in NF54 nanoGlo assay, at 72h; assay type: functional, organism-based, Erythrocyte; design: timepoint 72 hour
[2] = system: Plasmodium falciparum; assay: Hit confirmation in dose-response curve in NF54 pLDH assay, at 72h; assay type: functional, organism-based; design: timepoint 72 hour; details: NF54, Erythrocyte
[3] = system: Plasmodium falciparum; assay: Hit confirmation in dose-response curve in Dd2 pLDH assay, at 72h; assay type: functional, organism-based; design: timepoint 72 hour; details: Dd2, Erythrocyte
[4] = system: Plasmodium falciparum; assay: Hit confirmation in dose-response curve in NF54 nanoGlo assay, at 12h; assay type: functional, organism-based, Erythrocyte; design: timepoint 12 hour
[5] = Hit confirmation in dose-response curve in HepG2 cytotoxicity assay, at 72h; assay type: toxicity, cell-based; design: timepoint 72 hour; details: human, HepG2 cells
[6] = system: Plasmodium falciparum; assay: Re-testing in dose-response curve in 3D7 pLDH assay, at 72h; assay type: functional, organism-based; design: timepoint 72 hour; details: 3D7, Erythrocyte
[7] = Re-testing in dose-response curve in HepG2 cytotoxicity assay, at 72h; assay type: toxicity, cell-based; design: timepoint 72 hour; details: human, HepG2 cells
[8] = Plasmodium falciparum, NF54, Erythrocyte, 72 h
[9] = Plasmodium falciparum, NF54, Erythrocyte, 12 h

pIC50 [1, 8] | pIC50 [2] | pIC50 [3] | pIC50 [4, 9] | pIC50 [6] | pIC50 ([1]; erythrocyte) | pIC50 ([4]; erythrocyte) | Compound | IC50 at 72 h [5] [nM] | IC50 at 72 h [7] [nM]
 | 5.62 | 5.91 |  | 5.95 | 6.09 | 5.93 | CC(C)c1ccc(-c2nc(CN3CCCCC3)cc(CN3CCCCC3)c2O)cc1 | > 10000 | > 25000
6.31 | 5.59 | 6.02 | 6.20 | 5.86 |  |  | O=C(Nc1cnc2ccccc2c1)c1ccccc1C(=O)c1ccc(F)cc1 | > 10000 | > 25000
6.00 | 6.10 | 6.15 | 5.05 | 6.18 |  |  | CCn1cnc2c(N3CCC[C@H](c4ccncc4)C3)ncnc21 | > 10000 | > 25000
6.11 | 5.96 | 6.00 | 5.84 | 6.07 |  |  | COc1ccc2nc(O)c(C(=O)Nc3ccc4c(c3F)CCNC4)cc2c1 | 5620 | 2270
6.23 | 6.00 | 6.23 | 5.62 | 6.27 |  |  | CC(C)c1ccc2ncnc(N[C@H]3CCc4[nH]cnc4C3)c2c1 | > 10000 | > 25000
5.86 | 5.68 | 5.72 | 5.60 | 5.94 |  |  | CN1CCCN(c2ccc(NC(=O)c3nn(-c4ccccc4)c(=O)c4ccccc34)cc2F)CC1 | > 10000 | 7350

Continued, molecule first:

Compound | pIC50 [1, 8] | pIC50 [2] | pIC50 [3] | pIC50 [4, 9] | pIC50 [6] | pIC50 ([1]; erythrocyte) | pIC50 ([4]; erythrocyte) | IC50 at 72 h [5] [nM] | IC50 at 72 h [7] [nM]
Cc1c([C@@H](NCc2ncccc2O)C(C)C)oc2ccccc12 | 6.56 | 6.08 | 6.22 | 6.39 | 6.54 |  |  | > 10000 | > 25000
CCN1CCN(c2cccc(NC(=O)c3cc(F)cc4c(=O)c5cc(F)ccc5[nH]c34)c2)CC1 | 6.04 | 5.86 | 5.93 | 5.88 | 6.22 |  |  | > 10000 | 3480
Cc1cccc(CN(Cc2cccc(C)n2)C[C@H]2CCCCO2)n1 | 6.64 | 6.17 | 6.56 | 5.63 | 5.88 |  |  | > 10000 | > 25000
CCN1CCN(c2cccc(NC(=O)c3ccc4[nH]c5ccccc5c(=O)c4c3)c2)CC1 | 6.02 | 5.77 | 5.93 | 5.32 | ~6.34 |  |  | > 10000 | 7420
c1cc(N2CC[C@@]3(CCCNC3)C2)c2sccc2n1 | 6.32 | 6.41 | 6.40 | 6.21 | 6.24 |  |  | > 10000 | > 14200
COc1ccc(F)cc1S(=O)(=O)N1CCc2noc(N)c2C1 | 6.80 | 6.04 | 6.02 | < 5.00 | < 4.60 |  |  | > 10000 | > 25000
CCc1nc2c(C(=O)N3CCOc4c(C)cc(C)cc43)ccnc2[nH]1 | 5.85 | 5.37 | 5.89 | < 5.00 | 6.63 |  |  | > 10000 | > 25000
O=S(=O)(Nc1ccc(O)c2cccnc12)N1CCCC1 | 5.57 | 5.88 | 5.84 | 5.00 | 4.98 |  |  | > 10000 | 12500
CN1CC[C@]2(CCN(c3ccnc4ccsc34)C2)C1 | 6.26 | 6.42 | 6.39 | 6.04 | 6.34 |  |  | > 10000 | > 24800
O=C(Nc1cc(N2CCCS2(=O)=O)ccc1O)c1cccc(Oc2cccc(C(F)(F)F)c2)c1 | 6.45 | 5.96 | 6.27 | 6.30 | 6.38 |  |  | > 10000 | 20800
Cc1nc(N)nc(C)c1C(=O)Nc1ccc(Nc2ncccn2)cc1 | 5.83 | 5.75 | 5.77 | < 5.00 | 5.84 |  |  | > 10000 | > 25000
Cc1ccc(O)c(CNCC2(c3ccccc3Cl)CCOCC2)n1 | 6.68 | 6.24 | 6.36 | 6.50 | 6.35 |  |  | > 10000 | > 25000
O=S(=O)(NC12CCCC1CNC2)c1onc(C2CC2)c1Cl (stereo not drawn) | 6.05 | 5.83 | 5.94 | 5.79 | 4.98 |  |  | > 10000 | > 25000
